In US20150252022A1, “RETINOIC ACID RECEPTOR-RELATED ORPHAN RECEPTOR MODULATORS AND USES THEREOF” (INNOV17 LLC, priority 2014, published 2015):

What was measured:
Assay type in all cases: cell-based
Settings in all cases: 72 h; human CD4+ T cells under TH17-polarizing conditions, 3 days, supernatant ELISA
IL-17A = assay: Human TH17 Cytokine Inhibition as measured by ELISA (IL-17A)
Method: (§1) Peripheral blood mononuclear cells (PBMCs) were sourced from freshly prepared leukocyte enriched plasma (buffy coat) from healthy donors (New York Blood Center). PBMCs were isolated by density gradient centrifugation using Ficoll-Paque™ PLUS (GE Healthcare). Human CD4+ T cells were seeded into 96-well plates (5×10^4 cells/well) and activated with plate-bound anti-human (h)-CD3 antibody and soluble h-aCD28 (both at 1 ug/ml; eBioscience) and differentiated into TH17 cells with 20 ng/mL h-IL-6, 5 ng/mL h-TGF-β1, 10 ng/mL h-IL-23 (eBioscience) and 10 ng/mL IL-1β (Miltenyi Biotec) in serum-free TexMACS Medium (Miltenyi Biotec) supplemented with 1% Penicillin/Streptomycin (Lonza) for 3 days. CD4+ T cells propagated under TH17-polarizing conditions were cultured in the presence or absence of various concentrations of compounds with a final concentration of 0.1% DMSO. Supernatants were collected and stored at −20° C. until assayed for IL-17A, IL-17F and IL-21 levels by “Ready-Set-Go” ELISA kits (eBioscience) as per manufacturer's instructions. Endpoint absorbance was read at 450 nm using a microplate reader (Perkin Elmer).

IL-21 = assay: Human TH17 Cytokine Inhibition as measured by ELISA (IL-21)
Method: as §1

IL-17F = assay: Human TH17 Cytokine Inhibition as measured by ELISA (IL-17F)
Method: as §1

Compound | IC50 (IL-17A) [µM] | IC50 (IL-21) [µM] | IC50 (IL-17F) [µM]
O=C(CCc1ccccc1F)N1CCC(Cn2ccc3cc(-c4cn[nH]c4)ccc32)CC1 [Example 95, 1-(4-((5-(1H-pyrazol-4-yl)-1H-indol-1-yl)methyl)piperidin-1-yl)-3-(2-fluorophenyl)propan-1-one] | < 10 | < 10 | < 10
O=C(CCc1ccccc1)N1CCC(CN2CCCc3cc(-c4cn[nH]c4)ccc32)CC1 [Example 98, 1-(4-((6-(1H-pyrazol-4-yl)-3,4-dihydroquinolin-1(2H)-yl)methyl)piperidin-1-yl)-3-phenylpropan-1-one] | < 10 | < 10 | < 10
O=C(CC1CCCCC1)N1CCC(CN2CCCc3cc(-c4cn[nH]c4)ccc32)CC1 [Example 99, 1-(4-((6-(1H-pyrazol-4-yl)-3,4-dihydroquinolin-1(2H)-yl)methyl)piperidin-1-yl)-2-cyclohexylethanone] | < 10 | > 10 | < 10
O=C(Cc1ccccc1)N1CCC(CN2CCCc3cc(-c4cn[nH]c4)ccc32)CC1 [Example 102, 1-(4-((6-(1H-pyrazol-4-yl)-3,4-dihydroquinolin-1(2H)-yl)methyl)piperidin-1-yl)-2-phenylethanone] | < 10 | > 10 | < 10
O=C(CCCc1ccccc1)N1CCC(CN2CCCc3cc(-c4cn[nH]c4)ccc32)CC1 [Example 103, 1-(4-((6-(1H-pyrazol-4-yl)-3,4-dihydroquinolin-1(2H)-yl)methyl)piperidin-1-yl)-4-phenylbutan-1-one] | < 10 | > 10 | < 10
CC1(C)CC(Cn2ccc3cc(-c4cn[nH]c4)ccc32)CN1C(=O)c1ccccc1 (stereo not drawn) [Example 108, (4-((5-(1H-pyrazol-4-yl)-1H-indol-1-yl)methyl)-2,2-dimethylpyrrolidin-1-yl)(phenyl)methanone] | < 10 | < 10 | < 10
CC1(C)CC(Cn2ccc3cc(-c4cn[nH]c4)ccc32)CN1C(=O)Cc1ccccc1 (stereo not drawn) [Example 109] | < 10 | < 10 | < 10
CC1(C)CC(Cn2ccc3cc(-c4cn[nH]c4)ccc32)CN1C(=O)CCc1ccccc1 (stereo not drawn) [Example 110] | < 10 | < 10 | < 10
CC1(C)CC(Cn2ccc3cc(-c4cn[nH]c4)ccc32)CN1C(=O)CC1CCCCC1 (stereo not drawn) [Example 111] | < 10 | < 10 | < 10
O=C(CCc1ccccc1)N1CCC(Cn2ccc3cc(-c4c[nH]nn4)ccc32)CC1 [Example 112, 1-(4-((5-(1H-1,2,3-triazol-4-yl)-1H-indol-1-yl)methyl)piperidin-1-yl)-3-phenylpropan-1-one] | < 10 | < 10 | < 10
Cn1cc(-c2ccc3c(ccn3CC3CCN(C(=O)CCc4ccccc4)CC3)c2)nn1 [Example 113, 1-(4-((5-(1-methyl-1H-1,2,3-triazol-4-yl)-1H-indol-1-yl)methyl)piperidin-1-yl)-3-phenylpropan-1-one] | < 10 | < 10 | < 10
Cc1[nH]ncc1-c1ccc2c(ccn2CC2CCN(C(=O)CCc3ccccc3)CC2)c1 [Example 115, 1-(4-((5-(5-methyl-1H-pyrazol-4-yl)-1H-indol-1-yl)methyl)piperidin-1-yl)-3-phenylpropan-1-one] | < 10 | < 10 | < 10
O=C(CCc1ccccc1)N1CCC(Cn2ccc3cc(-c4cn[nH]c4C(F)(F)F)ccc32)CC1 [Example 117, 3-phenyl-1-(4-((5-(5-(trifluoromethyl)-1H-pyrazol-4-yl)-1H-indol-1-yl)methyl)piperidin-1-yl)propan-1-one] | < 10 | < 10 | < 10
O=C(CCc1ccccc1)N1CCC(Cn2ccc3cc(-c4cnn(CCO)c4)ccc32)CC1 [Example 118, 1-(4-((5-(1-(2-hydroxyethyl)-1H-pyrazol-4-yl)-1H-indol-1-yl)methyl)piperidin-1-yl)-3-phenylpropan-1-one] | < 10 | < 10 | < 10
NC(=O)Cn1cc(-c2ccc3c(ccn3CC3CCN(C(=O)CCc4ccccc4)CC3)c2)cn1 [Example 119, 2-(4-(1-((1-(3-phenylpropanoyl)piperidin-4-yl)methyl)-1H-indol-5-yl)-1H-pyrazol-1-yl)acetamide] | > 10 | < 10 | > 10
Cc1ncc(-c2ccc3c(ccn3CC3CCN(C(=O)CCc4ccccc4)CC3)c2)s1 [Example 120, 1-(4-((5-(2-methylthiazol-5-yl)-1H-indol-1-yl)methyl)piperidin-1-yl)-3-phenylpropan-1-one] | < 10 | < 10 | < 10
O=C(CCc1ccccc1)N1CCC(Cn2ccc3cc(-c4cnccn4)ccc32)CC1 [Example 121] | < 10 | < 10 | < 10
Cc1ccc(-c2ccc3c(ccn3CC3CCN(C(=O)CCc4ccccc4)CC3)c2)nc1 [Example 122] | < 10 | < 10 | < 10
Cc1ccncc1-c1ccc2c(ccn2CC2CCN(C(=O)CCc3ccccc3)CC2)c1 [Example 123] | < 10 | < 10 | < 10
O=C(CCc1ccccc1)N1CCC(Cn2ccc3cc(-c4cncs4)ccc32)CC1 [Example 124] | < 10 | < 10 | < 10
Cn1cc(-c2ccc3c(ccn3CC3CCN(C(=O)CCc4ccccc4)CC3)c2)cn1 [Example 125] | < 10 | < 10 | < 10
Cc1cc2cc(-c3cn[nH]c3)ccc2n1CC1CCN(C(=O)CCc2ccccc2)CC1 [Example 132, 1-(4-((2-methyl-5-(1H-pyrazol-4-yl)-1H-indol-1-yl)methyl)piperidin-1-yl)-3-phenylpropan-1-one] | < 10 | < 10 | < 10
Cc1cc2cc(-c3cn[nH]c3)ccc2n1CC1CCN(C(=O)Cc2ccccc2)CC1 [Example 133, 1-(4-((2-methyl-5-(1H-pyrazol-4-yl)-1H-indol-1-yl)methyl)piperidin-1-yl)-2-phenylethanone] | < 10 | < 10 | < 10
